Reference: patent US20250122183A1 (Pfizer Inc., priority 2023, published 2025)
Like-named read-outs stand apart in the source and are kept apart here.

What was measured:
Assay type in all cases: biochemical
Settings in all cases: replicate number in parentheses
[1] = target: KAT7+JADE1+EAF6+ING5 4 protein complex (Homo sapiens (Human), UniProt O95251); assay: KAT7 JADE1 assay (SAMDI-MS acetylation of H3 1-21 peptide)
KAT6A Full length enzyme = KAT6A Full length enzyme (Homo sapiens (Human), UniProt Q92794); assay: KAT6A assay (SAMDI-MS acetylation of H3 1-21 peptide)
KAT6A Full length enzyme, sequence (Q92794 other isoform, or with tags, fused parts or gaps): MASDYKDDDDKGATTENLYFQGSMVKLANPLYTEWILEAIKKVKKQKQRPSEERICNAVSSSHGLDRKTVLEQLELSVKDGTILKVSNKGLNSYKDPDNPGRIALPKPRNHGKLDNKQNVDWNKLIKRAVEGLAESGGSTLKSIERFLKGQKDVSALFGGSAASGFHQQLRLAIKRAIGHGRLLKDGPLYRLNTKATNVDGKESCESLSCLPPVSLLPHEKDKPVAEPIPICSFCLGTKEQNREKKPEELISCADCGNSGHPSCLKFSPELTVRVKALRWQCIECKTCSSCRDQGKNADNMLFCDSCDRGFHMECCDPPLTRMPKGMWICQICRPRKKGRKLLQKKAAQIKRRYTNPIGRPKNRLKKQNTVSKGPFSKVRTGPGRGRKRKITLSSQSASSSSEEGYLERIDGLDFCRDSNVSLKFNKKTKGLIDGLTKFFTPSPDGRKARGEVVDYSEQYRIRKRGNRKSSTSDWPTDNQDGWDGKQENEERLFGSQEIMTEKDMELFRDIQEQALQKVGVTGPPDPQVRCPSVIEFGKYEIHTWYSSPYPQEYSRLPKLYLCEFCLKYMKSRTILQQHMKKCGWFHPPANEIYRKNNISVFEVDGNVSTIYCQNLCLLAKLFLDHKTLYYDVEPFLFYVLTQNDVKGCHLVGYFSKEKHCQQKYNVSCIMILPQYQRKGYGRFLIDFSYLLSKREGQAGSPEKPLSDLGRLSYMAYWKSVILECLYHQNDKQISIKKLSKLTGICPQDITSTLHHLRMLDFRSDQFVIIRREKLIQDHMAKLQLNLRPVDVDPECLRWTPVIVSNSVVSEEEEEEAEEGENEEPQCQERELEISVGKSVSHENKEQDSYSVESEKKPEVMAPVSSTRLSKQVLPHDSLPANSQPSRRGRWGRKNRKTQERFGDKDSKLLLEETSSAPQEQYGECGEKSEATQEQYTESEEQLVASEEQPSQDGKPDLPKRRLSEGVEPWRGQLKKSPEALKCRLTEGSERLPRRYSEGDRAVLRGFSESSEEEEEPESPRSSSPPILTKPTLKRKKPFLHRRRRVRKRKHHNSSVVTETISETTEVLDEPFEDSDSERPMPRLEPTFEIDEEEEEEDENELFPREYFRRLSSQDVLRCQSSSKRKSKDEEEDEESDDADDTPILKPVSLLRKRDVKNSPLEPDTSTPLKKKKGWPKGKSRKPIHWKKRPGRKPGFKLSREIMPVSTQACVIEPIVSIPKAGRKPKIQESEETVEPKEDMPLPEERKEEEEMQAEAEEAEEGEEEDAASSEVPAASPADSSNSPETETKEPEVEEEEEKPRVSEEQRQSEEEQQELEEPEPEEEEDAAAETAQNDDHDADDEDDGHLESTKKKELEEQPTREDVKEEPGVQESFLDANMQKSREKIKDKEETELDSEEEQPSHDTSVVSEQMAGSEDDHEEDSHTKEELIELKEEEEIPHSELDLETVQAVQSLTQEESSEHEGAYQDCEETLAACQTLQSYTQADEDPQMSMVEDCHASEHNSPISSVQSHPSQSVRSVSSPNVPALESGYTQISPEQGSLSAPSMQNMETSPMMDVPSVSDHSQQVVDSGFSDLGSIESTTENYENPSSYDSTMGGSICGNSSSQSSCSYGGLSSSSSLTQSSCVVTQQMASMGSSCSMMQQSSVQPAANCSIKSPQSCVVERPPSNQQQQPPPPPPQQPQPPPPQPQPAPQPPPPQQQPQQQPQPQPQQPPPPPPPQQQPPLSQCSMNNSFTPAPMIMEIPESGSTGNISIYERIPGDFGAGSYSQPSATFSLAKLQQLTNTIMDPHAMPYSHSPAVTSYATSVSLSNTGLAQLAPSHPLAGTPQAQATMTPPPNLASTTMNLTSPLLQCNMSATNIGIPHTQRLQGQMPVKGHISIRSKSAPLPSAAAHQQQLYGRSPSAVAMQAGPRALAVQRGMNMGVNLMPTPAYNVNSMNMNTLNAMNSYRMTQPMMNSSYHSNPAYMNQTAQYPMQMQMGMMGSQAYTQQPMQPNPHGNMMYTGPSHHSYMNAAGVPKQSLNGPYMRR

[2] = target: KAT7+BRPF2+EAF6+ING5 4 protein complex (Homo sapiens (Human), UniProt O95251); assay: KAT7 BRPF2 assay (SAMDI-MS acetylation of H3 1-21 peptide)
KAT8 Full length enzyme = KAT8 Full length enzyme (Homo sapiens (Human), UniProt Q9H7Z6); assay: KAT8 assay (SAMDI-MS acetylation of H3 1-21 peptide)
KAT8 Full length enzyme, sequence (Q9H7Z6 whole entry): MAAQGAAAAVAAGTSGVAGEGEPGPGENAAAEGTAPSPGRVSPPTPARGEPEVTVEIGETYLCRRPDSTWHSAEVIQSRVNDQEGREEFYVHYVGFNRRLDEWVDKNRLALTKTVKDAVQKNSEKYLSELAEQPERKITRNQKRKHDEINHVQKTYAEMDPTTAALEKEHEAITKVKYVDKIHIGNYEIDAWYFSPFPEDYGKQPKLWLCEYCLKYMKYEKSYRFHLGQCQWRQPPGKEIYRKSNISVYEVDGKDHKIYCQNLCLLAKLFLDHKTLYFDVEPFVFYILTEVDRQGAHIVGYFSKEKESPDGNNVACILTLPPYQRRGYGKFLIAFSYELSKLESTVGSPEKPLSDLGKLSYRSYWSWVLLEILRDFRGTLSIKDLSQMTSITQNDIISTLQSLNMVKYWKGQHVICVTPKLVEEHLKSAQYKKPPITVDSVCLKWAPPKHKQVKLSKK

KAT5 Full length enzyme = KAT5 Full length enzyme (Homo sapiens (Human), UniProt Q92993); assay: KAT5 assay (SAMDI-MS acetylation of H4 1-21 peptide)
KAT5 Full length enzyme, sequence (Q92993 whole entry): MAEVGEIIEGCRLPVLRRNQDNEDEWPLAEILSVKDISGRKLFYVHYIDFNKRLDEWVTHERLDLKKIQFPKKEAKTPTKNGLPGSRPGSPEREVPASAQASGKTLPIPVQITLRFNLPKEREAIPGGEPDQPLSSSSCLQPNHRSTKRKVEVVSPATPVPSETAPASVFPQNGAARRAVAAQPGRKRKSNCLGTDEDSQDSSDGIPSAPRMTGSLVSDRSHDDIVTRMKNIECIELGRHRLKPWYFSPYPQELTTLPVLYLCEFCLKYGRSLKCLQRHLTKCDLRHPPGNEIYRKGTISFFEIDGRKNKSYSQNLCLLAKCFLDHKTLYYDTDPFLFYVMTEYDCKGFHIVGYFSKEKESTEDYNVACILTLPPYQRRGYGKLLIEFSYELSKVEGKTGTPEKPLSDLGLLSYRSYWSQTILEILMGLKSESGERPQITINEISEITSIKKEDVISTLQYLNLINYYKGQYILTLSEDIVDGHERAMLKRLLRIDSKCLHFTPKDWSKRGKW

[3] = Morrison equation fit, read-out: KAT7 JADE1 Ki (nM) (replicate number)
[4] = Morrison equation fit, read-out: KAT6A Ki (nM) (replicate number)
[5] = Morrison equation fit, read-out: KAT7 BRPF2 Ki (nM) (replicate number)
[6] = Morrison equation fit, read-out: KAT8 Ki (nM) (replicate number)
[7] = Morrison equation fit, read-out: KAT5 Ki (nM) (replicate number)
[8] = read-out: KAT7 JADE1 Ki (nM) (replicate)
[9] = read-out: KAT6A Ki (nM) (replicate)
[10] = read-out: KAT7 BRPF2 Ki (nM) (replicate)

SMILES | Ki [1, 3] [nM] | Ki (KAT6A Full length enzyme; [4]) [nM] | Ki [2, 5] [nM] | Ki (KAT8 Full length enzyme; [6]) [nM] | Ki (KAT5 Full length enzyme; [7]) [nM] | Ki [1, 8] [nM] | Ki (KAT6A Full length enzyme; [9]) [nM] | Ki [2, 10] [nM] | Ki (KAT8 Full length enzyme; read-out: KAT8 Ki (nM) (replicate)) | Ki (KAT5 Full length enzyme; read-out: KAT5 Ki (nM) (replicate))
COc1cc2c(NS(=O)(=O)c3c(OC)cc(C4COCC(C)(C)O4)cc3OC)noc2cc1Nc1cc(C2CC2)n[nH]1 (single isomer, unassigned) [Example 183, N-{6-[(3-cyclopropyl-1 H-pyrazol-5-yl)amino]-5-methoxy-1,2-benzoxazol-3-yl}-4-(6,6-dimethyl-1,4-dioxan-2-yl)-2,6-dimethoxybenzene-1-sulfonamide] | 5.7 | 2.1 | 2.1 |  |  |  |  |  |  | 
COc1cc2c(NS(=O)(=O)c3c(OC)cc(C4COCC(C)(C)O4)cc3OC)noc2cc1Nc1cc(C2CC2)n[nH]1 (single isomer, unassigned) [Example 184, N-{6-[(3-cyclopropyl-1 H-pyrazol-5-yl)amino]-5-methoxy-1,2-benzoxazol-3-yl}-4-(6,6-dimethyl-1,4-dioxan-2-yl)-2,6-dimethoxybenzene-1-sulfonamide] | 4.7 | 1.8 | 1.6 | 1030 | 60.7 |  |  |  |  | 
COc1cc2c(NS(=O)(=O)c3c(OC)cc(C4COC(C)(C)CO4)cc3OC)noc2cc1Nc1cc(C2CC2)n[nH]1 (single isomer, unassigned) [Example 185, N-{6-[(3-cyclopropyl-1 H-pyrazol-5-yl)amino]-5-methoxy-1,2-benzoxazol-3-yl}-4-(5,5-dimethyl-1,4-dioxan-2-yl)-2,6-dimethoxybenzene-1-sulfonamide] | 1.8 | 0.3 | 0.9 | 1220 | 1 |  |  |  |  | 
COc1cc2c(NS(=O)(=O)c3c(OC)cc(C4COC(C)(C)CO4)cc3OC)noc2cc1Nc1cc(C2CC2)n[nH]1 (single isomer, unassigned) [Example 186, N-{6-[(3-cyclopropyl-1 H-pyrazol-5-yl)amino]-5-methoxy-1,2-benzoxazol-3-yl}-4-(5,5-dimethyl-1,4-dioxan-2-yl)-2,6-dimethoxybenzene-1-sulfonamide] | 3.6 | 0.8 | 1.5 | 590 | 5.8 |  |  |  |  | 
COc1cc2c(NS(=O)(=O)c3c(OC)cc(C(C)N4CCOCC4)cc3OC)noc2cc1Nc1cc(C2CC2)n[nH]1 (single isomer, unassigned) [Example 207, N-{6-[(3-cyclopropyl-1 H-pyrazol-5-yl)amino]-5-methoxy-1,2-benzoxazol-3-yl}-2,6-dimethoxy-4-[1-(morpholin-4-yl)ethyl]benzene-1-sulfonamide] | 11.5 | 2.3 | 4 |  |  |  |  |  |  | 
CCOc1cccc(OC)c1S(=O)(=O)Nc1noc2cc(Nc3cc[nH]n3)c(OC)cc12 [Example 30, 2-ethoxy-6-methoxy-N-{5-methoxy-6-[(1H-pyrazol-3-yl)amino]-1,2-benzoxazol-3-yl}benzene-1-sulfonamide] | 248 | 0.5 | 26 | 676 | 605 |  |  |  |  | 
CCOc1cccc(OC)c1S(=O)(=O)Nc1noc2cc(Nc3cc(C(C)C)[nH]n3)c(OC)cc12 [Example 83, 2-ethoxy-6-methoxy-N-(5-methoxy-6-{[5-(propan-2-yl)-1H-pyrazol-3-yl]amino}-1,2-benzoxazol-3-yl)benzene-1-sulfonamide] | 60.1 | 2.9 | 7.8 | 10400 | 502 |  |  |  |  | 
CCc1cc(Nc2cc3onc(NS(=O)(=O)c4ccc(C(=O)NCCCCCN)cc4OC)c3cc2OC)[nH]n1 [Example 96, N-(5-aminopentyl)-4-({6-[(3-ethyl-1H-pyrazol-5-yl)amino]-5-methoxy-1,2-benzoxazol-3-yl}sulfamoyl)-3-methoxybenzamide] | 103 | 7.3 | 13.6 | > 13000 | 2050 |  |  |  |  | 
COc1cc2c(NS(=O)(=O)c3c(OC)cc(CN4CC(F)C4)cc3OC)noc2cc1Nc1cc(C2CC2)n[nH]1 [Example 202, N-{6-[(3-cyclopropyl-1H-pyrazol-5-yl)amino]-5-methoxy-1,2-benzoxazol-3-yl}-4-[(3-fluoroazetidin-1-yl)methyl]-2,6-dimethoxybenzene-1-sulfonamide] | 5.2 | 0.7 |  | 844 | 25.4 |  |  |  |  | 
COc1cc2c(NS(=O)(=O)c3c(OC)cc(-c4ncccn4)cc3OC)noc2cc1Nc1cc(C2CC2)n[nH]1 [Example 211, N-{6-[(3-cyclopropyl-1 H-pyrazol-5-yl)amino]-5-methoxy-1,2-benzoxazol-3-yl}-2,6-dimethoxy-4-(pyrimidin-2-yl)benzene-1-sulfonamide] | 3.7 | 1.1 |  | 1350 | 89.4 |  |  |  |  | 
COc1cc2c(NS(=O)(=O)c3c(OC)cc(-c4cnn(C)n4)cc3OC)noc2cc1Nc1cc(C2CC2)n[nH]1 [Example 212, N-{6-[(3-cyclopropyl-1 H-pyrazol-5-yl)amino]-5-methoxy-1,2-benzoxazol-3-yl}-2,6-dimethoxy-4-(2-methyl-2H-1,2,3-triazol-4-yl)benzene-1-sulfonamide] | 11.1 | 0.7 |  | 1410 | 159 |  |  |  |  | 
COc1cc2c(NS(=O)(=O)c3c(OC)cc(-c4ncc(CN(C)C)cn4)cc3OC)noc2cc1Nc1cc(C2CC2)n[nH]1 [Example 223, N-{6-[(3-cyclopropyl-1H-pyrazol-5-yl)amino]-5-methoxy-1,2-benzoxazol-3-yl}-4-{5-[(dimethylamino)methyl]pyrimidin-2-yl}-2,6-dimethoxybenzene-1-sulfonamide] | 4 | 0.4 |  | 679 | 25.4 |  |  |  |  | 
COc1cc2c(NS(=O)(=O)c3c(OC)cc(-c4nccc(C(C)N(C)C)n4)cc3OC)noc2cc1Nc1cc(C2CC2)n[nH]1 (centres unmarked) [Example 227, N-{6-[(3-cyclopropyl-1 H-pyrazol-5-yl)amino]-5-methoxy-1,2-benzoxazol-3-yl}-4-{4-[1-(dimethylamino)ethyl]pyrimidin-2-yl}-2,6-dimethoxybenzene-1-sulfonamide] | 6.9 | 0.4 |  | 3490 | 218 |  |  |  |  | 
CCc1cc(Nc2cc3onc(NS(=O)(=O)c4c(OC)cc(-c5ccn(C)n5)cc4OC)c3cc2OC)[nH]n1 [Example 230, N-{6-[(3-ethyl-1H-pyrazol-5-yl)amino]-5-methoxy-1,2-benzoxazol-3-yl}-2,6-dimethoxy-4-(1-methyl-1 H-pyrazol-3-yl)benzene-1-sulfonamide] | 2.3 | 1 |  | 1960 | 158 |  |  |  |  | 
COc1cc2c(NS(=O)(=O)c3c(OC)cc(-n4ncccc4=O)cc3OC)noc2cc1Nc1cc(C2CC2)n[nH]1 [Example 243, N-{6-[(3-cyclopropyl-1 H-pyrazol-5-yl)amino]-5-methoxy-1,2-benzoxazol-3-yl}-2,6-dimethoxy-4-(6-oxopyridazin-1(6H)-yl)benzene-1-sulfonamide] | 16.9 | 1.5 |  | 872 | 168 |  |  |  |  | 
COc1cc2c(NS(=O)(=O)c3c(OC)cc(N(C)C4CCOC4)cc3OC)noc2cc1Nc1cc(C2CC2)[nH]n1 (centres unmarked) [Example 247, N-{6-[(3-cyclopropyl-1H-pyrazol-5-yl)amino]-5-methoxy-1,2-benzoxazol-3-yl}-2,6-dimethoxy-4-[methyl(oxolan-3-yl)amino]benzene-1-sulfonamide] |  |  |  |  |  | 2.7 | 0.5 | 1.7 |  | 
COc1cc2c(NS(=O)(=O)c3c(OC)cc(N(C)C4COC4)cc3OC)noc2cc1Nc1cc(C2CC2)n[nH]1 [Example 248, N-{6-[(3-cyclopropyl-1H-pyrazol-5-yl)amino]-5-methoxy-1,2-benzoxazol-3-yl}-2,6-dimethoxy-4-[methyl(oxetan-3-yl)amino]benzene-1-sulfonamide] |  |  |  |  |  | 5.8 | 1.2 | 2.6 |  | 
COc1cc2c(NS(=O)(=O)c3c(OC)cc(N4CC[C@@H](OC)C4)cc3OC)noc2cc1Nc1cc(C2CC2)n[nH]1 [Example 250, N-{6-[(3-cyclopropyl-1H-pyrazol-5-yl)amino]-5-methoxy-1,2-benzoxazol-3-yl}-2,6-dimethoxy-4-[(3R)-3-methoxypyrrolidin-1-yl]benzene-1-sulfonamide] |  |  |  |  |  | 1.3 | 0.2 | 0.9 |  | 
COc1cc2c(NS(=O)(=O)c3c(OC)cc(N4C(=O)CCC4(C)C)cc3OC)noc2cc1Nc1cc(C2CC2)n[nH]1 [Example 256, N-{6-[(3-cyclopropyl-1H-pyrazol-5-yl)amino]-5-methoxy-1,2-benzoxazol-3-yl}-4-(2,2-dimethyl-5-oxopyrrolidin-1-yl)-2,6-dimethoxybenzene-1-sulfonamide] |  |  |  |  |  | 4.7 | 1.1 | 0.8 |  | 
COc1cc2c(NS(=O)(=O)c3c(OC)cc(C(=O)N4CC[C@H](F)C4)cc3OC)noc2cc1Nc1cc(C2CC2)n[nH]1 [Example 259, N-{6-[(3-cyclopropyl-1H-pyrazol-5-yl)amino]-5-methoxy-1,2-benzoxazol-3-yl}-4-[(3S)-3-fluoropyrrolidine-1-carbonyl]-2,6-dimethoxybenzene-1-sulfonamide] |  |  |  |  |  | 6.7 | 1.2 |  | 4990 | 85.1
